Data on 1 compound can be found in patent US20220054494A1, “METHODS FOR TREATING BLADDER AND URETHRA DYSFUNCTION AND DISEASE” (University of Pittsburgh - Of the Commonwealth System of …, priority 2019, published 2022).

Entries after “also recorded” stand apart in the source; their conditions may differ.

Type in all cases: in vivo, rat
In one experiment the test system is LC3. Kind of experiment: Western immunoblotting, LC3 (lipidated form). The conditions noted are these: aged rats; oral 8-AG 5 mg/kg/day, 6 weeks. The method, then: Western immunoblotting: Following the testing paradigms, rats were deeply anesthetized, bladders as well as the proximal urethra were removed, and one half of each preparation was homogenized using Lysing Matrix D in a FastPrep 24 instrument (MP Biomedicals, Solon, Ohio) in HBSS [5 mM KCl, 0.3 mM KH2PO4, 138 mM NaCl, 4 mM NaHO3, 0.3 mM Na2HCO3, 0.3 mM Na2HPO4, 5.6 mM glucose, and 10 mM Hepes, pH 7.4 containing a complete protease inhibitor cocktail (1 tablet/10 ml, ROCHE®, Indianapolis, Ind.) and a phosphatase inhibitor cocktail (SIGMA®, 1:100)]. After centrifugation (13000 rpm; 15 min at 4° C.), the membrane protein fraction was prepared by suspending the membrane pellets in lysis buffer containing 0.3 M NaCl, 50 mM Tris-HCl (pH 7.6), and 0.5% Triton X-100 and the same concentration of protease inhibitors as above. The suspensions were incubated on ice and centrifuged (13000 rpm; 15 min at 4° C.). The protein concentrations of the combined supernatants were determined using the PIERCE® BCA protein assay (THERMO SCIENTIFIC®, Rockford, Ill.). […] As a loading control, total protein per sample was determined using Bio-Rad Stain Free SDS-PAGE gel technology. UV-activated protein fluorescence was imaged on a CHEMIDOC® MP (BIO-RAD®). […] The volume (intensity) of each protein species was determined and normalized to total protein using Image Lab software (BIO-RAD®).

The next experiment relates to bladder vasculature. Kind of experiment: Ribbon-scanning confocal microscopy of bladder vasculature perfused with fluorescent beads. The conditions noted are these: aged rats. From the text:
Bladders that had been perfused transcardially with PBS and containing 20 nm yellow-green fluorescent beads (THERMO FISHER™, F8787) to highlight the vasculature were fixed then cleared rapidly by removing lipids and dissolving light-absorbing chromophores within the tissue. Clearing the tissue increased the maximum depth of confocal imaging to many millimeters. At this stage, tissue was directly imaged for the presence of genetically expressed reporter proteins or underwent staining using immunohistochemistry (IHC) or molecular dyes. Using this method, images were acquired through bladders (and other tissues) that are 5000 micrometers thick. Volumetric data are acquired using the Caliber ID RS-G4 ribbon scanning confocal microscope, which acquired large-area images 20-40 times faster than other commercially available systems with a high nA (1.0) long working distance (8 mm) low magnification (20×) by NIKON™ Inc (Tokyo, Japan). Quantitative changes in vascular structures were compared with the volume and surface area of each bladder and of the various tissue subtypes using these methods (UT; suburothelium; mesenchyme). These methods afforded the advantage of interrogating whole tissues in a three-dimensional environment and in combination with IHC without the need to section.
Vascular Changes: Bladders that had been perfused transcardially with PBS buffer containing 20 nm yellow-green fluorescent beads (THERMO FISHER®, F8787) to highlight the vasculature were fixed then cleared by removing lipids and dissolving light-absorbing chromophores within the tissue. Volumetric data were acquired using a Caliber ID RS-G4 ribbon scanning confocal microscope (NIKON® Inc, Tokyo, Japan), which can acquire large-area images (uses a high nA (1.0) long working distance (8 mm) with low magnification (20×)). This affords the advantage of interrogating whole tissues in a three-dimensional environment without the need to section. Real-time blood perfusion (1 mm3 tissue) was accomplished using a BLF22D laser Doppler flowmeter (Transonic Systems, Inc) with a surface probe (TypeS-APLPHS) applied to the serosal surface of the bladder (apex and neck) wall using Doppler light shift from moving RBCs to analyze flow by the Bonner algorithm. This method gives robust, non-invasive microvascular flow signals in the bladder wall of anesthetized rats.

The test system of a further experiment is MCP-1. Kind of experiment: RT-qPCR of bladder MCP-1 mRNA in CYP cystitis model. The conditions noted are these: CYP (75 mg/kg i.p.) female Sprague Dawley rats; oral 8-AG 5 mg/kg/day starting one week prior to CYP. On the procedure:
Animals: Female Sprague Dawley rats were employed in this example (Charles River; Wilmington, Mass.). Three groups of animals were included. Group 1 received an i.p. injection of saline and was used as a control; groups 2 and 3 received an i.p. injection of cyclophosphamide (CYP, SIGMA-ALDRICH®, St Louis, Mo., day 0, 3, 6, sacrifice day 8, 75 mg/kg, i.p.) with group 3 treated with oral 8-AG (5 mg/kg/day; starting one week prior to CYP). CYP induced bladder inflammation and is a well-established pre-clinical model for BPS/IC.
RT-qPCR: Total RNA was isolated from bladders using TRIZOL® Reagent (THERMO FISHER SCIENTIFIC®; Waltham, Mass.) according to the manufacturer's instructions. The cDNA was synthesized using ISCRIPT™ cDNA synthesis kit (BIO-RAD®). qPCR analysis was performed using Power SYBR™ Green PCR Master Mix (THERMO FISHER SCIENTIFIC®) in the APPLIED BIOSYSTEMS® QUANTSTUDIO™ 3 Real-Time PCR System (THERMO FISHER SCIENTIFIC®). The primers used were as follows: for IL-1beta, 5′-[…]-3′ (forward; SEQ ID NO: 1) and 5′-[…]-3′ (reverse; SEQ ID NO: 2); for MCP-1, 5′-[…]-3′ (forward; SEQ ID NO: 3) and 5′-[…]-3′ (reverse; SEQ ID NO: 4); for β-actin, 5′-ACTCTTCCAGCCTTCCTTC-3′ (forward; SEQ ID NO: 5) and 5′-[…]-3′ (reverse; SEQ ID NO: 6). The threshold cycle (Ct) for target was subtracted from Ct for β-actin to give ΔCt. Results are expressed as 2AC.
(In general: Quantitative PCR measures a nucleic acid by following its amplification.)

The mark [1] stands for this setting: chronic 8-AG treatment (Examples 1-2).

With `Nc1nc2[nH]c(N)nc2c(=O)[nH]1` [8-AG, 8-Aminoguanine], in the experiment with LC3, the “LC3 (lipidated form) expression in detrusor” value is “partially restores expression toward younger state; also recorded: trend toward reversal”. In the experiment on bladder vasculature (setting [1]), the “ischemic appearance of bladder tissue” value is reported as “no longer appeared ischemic” and the “tortuosity of bladder vessels” value is reported as “restored to a younger state; also recorded: reduced the number of tortuous vessels”. Besides, in the experiment on bladder vasculature (oral 8-AG 5 mg/kg/day, 6 weeks), the “ischemic appearance of bladder tissue” value was “no longer appeared ischemic” and the “vascular tortuosity / tortuous vessels in bladder” value is listed as “reduced the number of tortuous vessels; also recorded: restored to a younger state”. In addition, in the experiment on MCP-1, the “MCP-1 mRNA expression in bladder” value is recorded as “suppressed; also recorded: near the detection limit; also recorded: nearly abolished”.
